Reference: ChEMBL document CHEMBL1671711, “Serum and cerebrospinal fluid levels of colistin in pediatric patients” (Antimicrob Agents Chemother, 2010)

What was measured:
Acinetobacter baumannii = experiment: Antimicrobial activity against Acinetobacter baumannii; format: functional
Klebsiella pneumoniae = experiment: Antimicrobial activity against Klebsiella pneumoniae; format: functional, organism-based
[1] = system: Stenotrophomonas maltophilia; experiment: Antimicrobial activity against Stenotrophomonas maltophilia; format: functional, organism-based

Measured: MIC

COLISTIN
< 0.5 µg/mL: all assays above
